Assay results published in US11377451B2, “Compositions and methods for treating cancer” (The Regents of the University of California, priority 2019, dated 2022).

Legend:
[1] = test system: GBM39; experiment: GI50 assay (Cell Titer Glo proliferation, 3 days); assay type: cell-based, human; conditions: Homo sapiens, 72 h; GBM39, 3 days
[2] = Protein binding (fraction unbound in blood and brain)
[3] = Pharmacokinetic / brain penetration studies in mice; assay type: in vivo; conditions: for Kp / Kp uu: male, CD-1, mouse; for Kp: brain / plasma
Description: Pharmacokinetic studies were performed on male CD-1 mice aged 8-10 weeks. Mice were dosed as indicated in duplicates. At the time points, whole blood was obtained by retro-orbital bleeding and brain tissue was harvested. Blood samples were centrifuged to obtain plasma and brain tissue was washed and homogenized. Samples were extracted with acetonitrile and supernatant was dried using a speed-vac. Dried samples were solubilized in 50:50:0.1 acetonitrile:water:formic acid and quantified on an Agilent 6400 series Triple Quadrupole LC/MS.
Disclosed in table 5 Brain to plasma percentages and unbound ratios of drugs in brain to plasma of indicated drugs in non-tumor bearing mice

[4] = test system: HK301; experiment: GI50 assay (Cell Titer Glo proliferation, 3 days); assay type: cell-based, human; conditions: Homo sapiens, 72 h; HK301, 3 days; read-out: HK301 GI50
[5] = Table 5, unbound ratios of drugs in brain to plasma, non-tumor bearing mice
[6] = Table 4, unbound partition coefficient of the brain and plasma, at equilibrium

| SMILES | GI50 [1] [µM] | GI50 [4] [µM] | further results |
| --- | --- | --- | --- |
| C#Cc1cccc(Nc2ncnc3cc4c(cc23)OCCO4)c1F [JGK038, N-(3-Ethynyl-2-fluorophenyl)-7,8-dihydro[1,4]dioxino[2,3-g]quinazolin-4-amine] | 2.95 | 0.791 | Bound (blood) ([2]; blood): 98.70%; fraction unbound ([2]; blood, Fu (blood)): 0.013; Bound (brain) ([2]; brain): 99.11%; fraction unbound ([2]; brain, Fu (brain)): 0.0089; Kp ([3]; non-tumor bearing mice): 0.843; Kp uu [3, 5]: 0.575 |
| CN1CCN(C[C@H]2COc3cc4ncnc(Nc5cccc(Br)c5F)c4cc3O2)CC1 [JGK068S, (7S)—N-(3-Bromo-2-fluorophenyl)-7-[(4-methylpiperazin-1-yl)methyl]-7,8-dihydro[1,4]dioxino [2,3-g]quinazolin-4-amine] | 1.21 | 0.44 | Bound (blood) ([2]; blood): 94.04%; fraction unbound ([2]; blood, Fu (blood)): 0.0596; Bound (brain) ([2]; brain): 98.14%; fraction unbound ([2]; brain, Fu (brain)): 0.0186; Kp ([3]; non-tumor bearing mice): 3.78 |
| CN(C)CC1COc2cc3ncnc(Nc4cccc(Br)c4F)c3cc2O1 (racemic) [JGK066, (±)-N-(3-Bromo-2-fluorophenyl)-7-[(dimethylamino)methyl]-7,8-dihydro[1,4]dioxino[2,3-g]quinazolin-4-amine] | 2.4 | 0.734 | Bound (blood) ([2]; blood): 92.96%; fraction unbound ([2]; blood, Fu (blood)): 0.0704; Bound (brain) ([2]; brain): 96.98%; fraction unbound ([2]; brain, Fu (brain)): 0.0302; Kp ([3]; non-tumor bearing mice): 2.74 |
| Fc1cccc(Nc2ncnc3cc4c(cc23)OCCO4)c1F [JGK028] | 5.57 | 1.69 | Bound (blood) ([2]; blood): 98.56%; fraction unbound ([2]; blood, Fu (blood)): 0.0144; Bound (brain) ([2]; brain): 98.59%; fraction unbound ([2]; brain, Fu (brain)): 0.0141; Kp ([3]; non-tumor bearing mice): 1.06; Kp uu [3, 6]: 1.04 |
| CN1CCN(C[C@@H]2COc3cc4ncnc(Nc5cccc(Br)c5F)c4cc3O2)CC1 [JGK068R] | 3.38 | 1.4 | Bound (blood) ([2]; blood): 94.67%; fraction unbound ([2]; blood, Fu (blood)): 0.0533; Bound (brain) ([2]; brain): 98.43%; fraction unbound ([2]; brain, Fu (brain)): 0.0157; Kp uu [3, 6]: 1.05 |
| CN1CCN(CC2COc3cc4ncnc(Nc5cccc(Br)c5F)c4cc3O2)CC1 (racemic) [JGK068, (±)-N-(3-Bromo-2-fluorophenyl)-7-[(4-methylpiperazin-1-yl)methyl]-7,8-dihydro[1,4]dioxino[2,3-g]quinazolin-4-amine] | 1.61 | 0.577 | Bound (blood) ([2]; blood): 93.69%; fraction unbound ([2]; blood, Fu (blood)): 0.0631; Bound (brain) ([2]; brain): 97.89%; fraction unbound ([2]; brain, Fu (brain)): 0.0211; Kp ([3]; non-tumor bearing mice): 3.54 |
| Fc1c(I)cccc1Nc1ncnc2cc3c(cc12)OCCO3 [JGK042] | 4.52 | 2.29 | Bound (blood) ([2]; blood): 98.15%; fraction unbound ([2]; blood, Fu (blood)): 0.0185; Bound (brain) ([2]; brain): 98.86%; fraction unbound ([2]; brain, Fu (brain)): 0.0114; Kpuu (Avg) [3, 5]: 1.033; Kp uu [3, 6]: 1.03 |
| Fc1c(Nc2ncnc3cc4c(cc23)OCCO4)ccc(Cl)c1Cl [JGK060, N-(3,4-Dichloro-2-fluorophenyl)-7,8-dihydro[1,4]dioxino[2,3-g]quinazolin-4-amine] | 3.5 | 2.95 |  |
| CN1CCN(CC2COc3cc4c(Nc5cccc(Br)c5F)ncnc4cc3O2)CC1 (racemic) [JGK078, (±)-N-(3-Bromo-2-fluorophenyl)-8-[(4-methylpiperazin-1-yl)methyl]-7,8-dihydro[1,4]dioxino[2,3-g]quinazolin-4-amine] | 5.76 | 2.03 |  |
| COC(=O)[C@@H](N)Cc1ccc(Nc2ncnc3cc4c(cc23)OCCO4)cc1 [JGK016] | 61.6 | 4.05 |  |
| Fc1c(Br)cccc1Nc1ncnc2cc3c(c(F)c12)OCCO3 [JGK072, N-(3-Bromo-2-fluorophenyl)-5-fluoro-7,8-dihydro[1,4]dioxino[2,3-g]quinazolin-4-amine] | 12 | 5.02 |  |
| C#Cc1cccc(Nc2ncnc3cc(OC(=O)c4ccccc4)c(OC(=O)c4ccccc4)cc23)c1 [JGK006] | 51.4 | 11 |  |
| COC(=O)[C@H](Cc1ccc(Nc2ncnc3cc(O)c(O)cc23)cc1)NC(=O)OC(C)(C)C [JGK020] | 36.2 | 29.2 |  |
| Oc1cc2ncnc(Nc3cccc(Cl)c3F)c2cc1O [JGK022] | 150 | 31.1 |  |
| [2H]C1([2H])Oc2cc3ncnc(Nc4cccc(Cl)c4F)c3cc2OC1([2H])[2H] [JGK036, N-(3-Chloro-2-fluorophenyl)(7,7,8,8-^2H4)-7,8-dihydro[1,4]dioxino[2,3-g]quinazolin-4-amine] | 4.51 | 1.05 |  |
| Fc1cccc(F)c1Nc1ncnc2cc3c(cc12)OCCO3 [JGK027] | 11.8 | 5.81 |  |
| Fc1c(Br)cccc1Nc1ncnc2cc3c(cc12)O[C@@H](CN1CCNCC1)CO3 [JGK083S, (7S)—N-(3-Bromo-2-fluorophenyl)-7-[(piperazin-1-yl)methyl]-7,8-dihydro[1,4]dioxino [2,3-g]quinazolin-4-amine] | 0.841 | 0.529 | Bound (blood) ([2]; blood): 92.98%; fraction unbound ([2]; blood, Fu (blood)): 0.0702; Bound (brain) ([2]; brain): 97.58%; fraction unbound ([2]; brain, Fu (brain)): 0.0242; Kp ([3]; non-tumor bearing mice): 2.31 |
| CN(C)CCC1COc2cc3ncnc(Nc4cccc(Br)c4F)c3cc2O1 (racemic) [JGK069, (±)-N-(3-Bromo-2-fluorophenyl)-7-[2-(dimethylamino)ethyl]-7,8-dihydro[1,4]dioxino[2,3-g]quinazolin-4-amine] | 2.17 | 0.659 |  |

| SMILES | GI50 [1] [µM] | GI50 [4] [µM] | further results |
| --- | --- | --- | --- |
| Fc1c(Br)cccc1Nc1ncnc2cc3c(cc12)OCC(CCN1CCCC1)O3 (racemic) [JGK089, (±)-N-(3-Bromo-2-fluorophenyl)-8-[2-(pyrrolidin-1-yl)ethyl]-7,8-dihydro[1,4]dioxino[2,3-g]quinazolin-4-amine] | 5.09 | 3.16 |  |
| C[C@@H]1Oc2cc3c(Nc4cccc(Br)c4F)ncnc3cc2O[C@@H]1C (racemic) [JGK052, (±)-cis-N-(3-Bromo-2-fluorophenyl)-7,8-dimethyl-7,8-dihydro[1,4]dioxino[2,3-g]quinazolin-4-amine] | 9.22 | 3.87 |  |
| CC1Oc2cc3ncnc(Nc4cccc(Br)c4F)c3cc2OC1C (racemic) [JGK051, (±)-cis- and (±)-trans-N-(3-Bromo-2-fluorophenyl)-7,8-dimethyl-7,8-dihydro[1,4]dioxino[2,3-g]quinazolin-4-amine] | 24.1 | 8.25 |  |
| CC(=O)N(CCS(C)(=O)=O)Cc1ccc(-c2ccc3ncnc(N(C(C)=O)c4ccc(OCc5cccc(F)c5)c(Cl)c4)c3c2)o1 [JGK011] | 3.25 | 9.21 |  |
| CN1CCN(CCC2COc3cc4ncnc(Nc5cccc(Br)c5F)c4cc3O2)CC1 (racemic) [JGK070, (±)-N-(3-Bromo-2-fluorophenyl)-7-[2-(4-methylpiperazin-1-yl)ethyl]-7,8-dihydro[1,4]dioxino[2,3-g]quinazolin-4-amine] | 3.33 | 1.41 |  |
| O=C(Oc1cc2ncnc(Nc3cccc(Cl)c3F)c2cc1OC(=O)c1ccccc1)c1ccccc1 [JGK004] | 103 | 23.4 |  |
| C#Cc1cccc(N(C(=O)OC(C)(C)C)C2=NC(OCC)N(C(=O)OC(C)(C)C)c3cc(OCCOC)c(OCCOC)cc32)c1 (centres unmarked) [JGK003] | 23.1 | 1.13 |  |
| C[C@@H]1Oc2cc3ncnc(Nc4cccc(Br)c4F)c3cc2O[C@H]1C (racemic) [JGK059, (±)-trans-N-(3-Bromo-2-fluorophenyl)-7,8-dimethyl-7,8-dihydro[1,4]dioxino[2,3-g]quinazolin-4-amine] | 11.2 | 8.11 |  |
| Fc1cc(F)c(Nc2ncnc3cc4c(cc23)OCCO4)c(F)c1 [JGK029] | 34 | 24.4 |  |
| Fc1ccc(Br)c(F)c1Nc1ncnc2cc3c(cc12)OCCO3 [JGK056, N-(3-Bromo-2,6-difluorophenyl)-7,8-dihydro[1,4]dioxino[2,3-g]quinazolin-4-amine] | 1.36 | 0.419 |  |
| Fc1c(Nc2ncnc3cc4c(cc23)OCCO4)cccc1C(F)(F)F [JGK039, N-[2-Fluoro-3-(trifluoromethyl)phenyl]-7,8-dihydro[1,4]dioxino[2,3-g]quinazolin-4-amine] | 7.82 | 3.61 |  |
| Fc1c(F)c(F)c(Nc2ncnc3cc4c(cc23)OCCO4)c(F)c1F [JGK030] | 961 | 559 |  |
| CN1CCN(CC2COc3cc4ncnc(Nc5cccc(Br)c5)c4cc3O2)CC1 (centres unmarked) [JGK074] | 6.67 | 2.28 | Kp ([3]; non-tumor bearing mice): 1.66 |
| C#Cc1cccc(N(C(C)=O)c2ncnc3cc(OCCOC)c(OCCOC)cc23)c1 [JGK002] | 19.8 | 5.45 |  |
| CC(=O)N(c1cccc(Cl)c1F)c1ncnc2cc3c(cc12)OCCO3 [JGK0012] | 10.8 | 5.48 |  |
| Fc1c(Br)cccc1Nc1ncnc2cc3c(cc12)OC(CN1CCCCC1)CO3 (racemic) [JGK065, (±)-N-(3-Bromo-2-fluorophenyl)-7-[(piperidin-1-yl)methyl]-7,8-dihydro[1,4]dioxino[2,3-g]quinazolin-4-amine] | 7.34 | 3.43 |  |
| Fc1c(Br)cccc1Nc1ncnc2cc3c(cc12)OCC(CN1CCOCC1)O3 (racemic) [JGK076, (±)-N-(3-Bromo-2-fluorophenyl)-8-[(morpholin-4-yl)methyl]-7,8-dihydro[1,4]dioxino[2,3-g]quinazolin-4-amine] | 16.9 | 6.16 |  |
| COC1N=C(N(C(=O)OC(C)(C)C)c2cccc(Cl)c2F)c2cc3c(cc2N1C(=O)OC(C)(C)C)OCCO3 (centres unmarked) [JGK013] | 220 | 1.55 |  |
